These results are taken from patent US4029547A (priority 1974, dated 1977).

One data set concerns the target T1, aminopeptidase B (Rattus norvegicus, UniProt O09175).
T1 construct: aminopeptidase B of rat liver; from tissue; host or cells: rat liver, enzyme prepared by Sephadex 100 chromatography
T1 sequence (O09175 1-650): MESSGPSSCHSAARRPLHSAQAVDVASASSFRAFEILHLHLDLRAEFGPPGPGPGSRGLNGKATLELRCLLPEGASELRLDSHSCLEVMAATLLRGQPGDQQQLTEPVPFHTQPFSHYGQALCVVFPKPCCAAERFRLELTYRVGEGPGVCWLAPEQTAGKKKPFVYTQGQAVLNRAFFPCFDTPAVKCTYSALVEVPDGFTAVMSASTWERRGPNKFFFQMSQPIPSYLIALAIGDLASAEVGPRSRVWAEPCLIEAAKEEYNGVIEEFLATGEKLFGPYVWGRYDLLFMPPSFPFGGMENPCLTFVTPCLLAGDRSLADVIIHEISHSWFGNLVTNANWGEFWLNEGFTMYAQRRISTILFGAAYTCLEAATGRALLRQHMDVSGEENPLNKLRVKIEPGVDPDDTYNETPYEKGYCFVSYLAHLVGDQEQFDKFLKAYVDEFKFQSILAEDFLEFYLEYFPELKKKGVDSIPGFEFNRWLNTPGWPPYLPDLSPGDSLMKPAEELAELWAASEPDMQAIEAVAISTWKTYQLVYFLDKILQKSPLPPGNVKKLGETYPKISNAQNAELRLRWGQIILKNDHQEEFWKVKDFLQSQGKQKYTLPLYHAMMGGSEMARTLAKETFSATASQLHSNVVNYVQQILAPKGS
Description: Inhibition of aminopeptidase B (arginine β-naphthylamide hydrolysis). It is filed as biochemical. The following applies: for 50% inhibition dose (ID50) of aminopeptidase B: amount added to the test solution. Here is the method: To the mixture of 0.3 ml of 1 mM arginine β-naphthylamide and 1.0 ml of 0.1 M Tris hydrochloride buffer (pH 7.0), 0.7 ml of distilled water with or without a test material is added and warmed at 37° C.) for 3 minutes. The reaction is started by addition of 0.2 ml of aminopeptidase B solution which is prepared by Sephadex 100 chromatography as described by Hopusu et al. After 30 minutes at 37° C., 0.6 ml of 1.0 M acetate buffer (pH 4.2) containing diazonium salt of o-aminoazotoluene at 1.0 mg/ml and Tween 20 at 10% is added. […] The inhibition percent is calculated as follows: (b-a)/b × 100.

The next data set has as its target T2, leucine aminopeptidase (Sus scrofa, UniProt P28839).
T2 construct: leucine aminopeptidase of swine kidney; from tissue; host or cells: swine kidney
T2 sequence (P28839 33-519 limits assumed): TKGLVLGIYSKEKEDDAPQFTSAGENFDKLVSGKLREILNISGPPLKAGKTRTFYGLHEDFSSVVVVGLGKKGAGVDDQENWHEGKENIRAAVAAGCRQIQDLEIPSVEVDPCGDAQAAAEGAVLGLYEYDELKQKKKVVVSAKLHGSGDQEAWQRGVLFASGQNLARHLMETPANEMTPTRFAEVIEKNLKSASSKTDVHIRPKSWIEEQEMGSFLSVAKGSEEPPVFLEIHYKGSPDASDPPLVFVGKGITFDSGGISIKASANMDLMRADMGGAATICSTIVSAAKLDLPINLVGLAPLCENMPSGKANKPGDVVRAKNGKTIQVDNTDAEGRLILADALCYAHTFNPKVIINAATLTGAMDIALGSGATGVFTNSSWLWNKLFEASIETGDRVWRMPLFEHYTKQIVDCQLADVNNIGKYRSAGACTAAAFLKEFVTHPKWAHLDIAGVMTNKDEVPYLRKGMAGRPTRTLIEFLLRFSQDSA
Description: Inhibition of leucine aminopeptidase (L-leucine naphthylamide hydrolysis). The note with it: substrate L-leucine-β-naphthylamide. It is filed as biochemical, swine. Here is the method: The activity was determined by the following method: to 0.25 ml. of 2 mM L-leucine-3-naphthylamide (Tokyo Chem. Indust. Co., Ltd., Japan) was added 0.5 ml. of 0.1 M Tris-HCl buffer at pH 7.0 and 0.2 ml. of distilled water with or without an inhibitor in a series of test tubes in a 37° C. bath. After 3 minutes, 0.05 ml. of enzyme solution was added and mixed well.

In data set [1] the test system is aminopeptidase A of human serum. Description: Inhibition of aminopeptidase A. It counts as biochemical.
The next data set relates to trypsin. Put plainly: Inhibition of trypsin. It counts as biochemical.
A further data set relates to chymotrypsin. Put plainly: Inhibition of chymotrypsin. It is filed as biochemical.
A further data set has as its system elastase. Put plainly: Inhibition of elastase. It is filed as biochemical.
The target of the next data set is T3, papain (Carica papaya, UniProt P00784).
T3 sequence (P00784 134-345): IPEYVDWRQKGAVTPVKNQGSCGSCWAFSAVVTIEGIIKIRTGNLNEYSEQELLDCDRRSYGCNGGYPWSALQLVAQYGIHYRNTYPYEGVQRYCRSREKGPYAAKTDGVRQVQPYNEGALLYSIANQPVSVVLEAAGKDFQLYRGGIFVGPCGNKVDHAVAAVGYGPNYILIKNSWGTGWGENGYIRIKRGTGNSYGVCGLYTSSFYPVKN
Put plainly: Inhibition of papain. It counts as biochemical.

In a further data set the test system is pepsin. Description: Inhibition of pepsin. It is filed as biochemical.
A further data set addresses T4, thermolysin (Bacillus thermoproteolyticus, UniProt P00800).
T4 sequence (P00800 233-548): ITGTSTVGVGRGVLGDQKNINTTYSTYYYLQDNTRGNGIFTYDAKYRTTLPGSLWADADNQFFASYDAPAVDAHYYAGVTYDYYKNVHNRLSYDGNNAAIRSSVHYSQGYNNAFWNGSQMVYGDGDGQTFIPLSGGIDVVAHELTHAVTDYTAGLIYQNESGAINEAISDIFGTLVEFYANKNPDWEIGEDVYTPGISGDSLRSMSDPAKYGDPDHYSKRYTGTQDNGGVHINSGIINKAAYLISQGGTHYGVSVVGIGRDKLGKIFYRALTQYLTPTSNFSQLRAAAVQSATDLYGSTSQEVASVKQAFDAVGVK
Put plainly: Inhibition of thermolysin. It counts as biochemical.

For another data set, the system named is bacteria. Description: Antibacterial activity. It counts as cell-based.
A further data set has as its system fungi. Description: Antifungal activity. It is filed as cell-based. The note with it: at 100 μg/ml.
Data set [2] can be described thus: Toxicity after intraperitoneal injection. It counts as in vivo, mouse.
The subject of data set [3] is Yoshida rat sarcoma cells. Description: Increase of bleomycin activity in tissue culture. It counts as cell-based. The following applies: bestatin 6.25 μg/ml in tissue culture medium.
The test system of data set [4] is methylcholanthrene-induced squamous cell carcinoma. Description: Increase of bleomycin effect on carcinoma in vivo. On the set-up: species or system rat. The note with it: simultaneous subcutaneous daily injection, 5 mg/kg bestatin with 5 mg/kg bleomycin, rats.
The next data set in a line: Stability to pH and heat. The note with it: culture filtrate containing bestatin, pH 2.0 or pH 9.0, 60° C., 30 minutes. It is filed as physicochemical.
A further data set in a line: Solubility in solvents. It counts as physicochemical.
Another data set deals with bleomycin hydrolase. Put plainly: Inhibition of bleomycin hydrolase. It is filed as biochemical.
Data set [5] relates to mammalian cells including cancer cells. Description: Inhibition of growth of mammalian cells. It is filed as cell-based.

Several values for one entry are separate records, joined by “and”; a condition that tells them apart may be missing. Equal values may be shown once. Entries after “also recorded” stand apart in the source; their conditions may differ. Read-outs that look alike come from different tables or passages of the source.

Consider `COC(=O)[C@H](CC(C)C)NC(=O)[C@@H](O)[C@@H](Cc1ccccc1)NC(C)=O` [N-acetyl-bestatin methyl ester], for which, at aminopeptidase B, the “50% inhibition dose (ID50) of aminopeptidase B” value (shortened to “50% inhibition dose (ID50)”) came to 8 µg.

For `CC(C)C[C@H](NC(=O)[C@@H](O)[C@H](N)Cc1ccccc1)C(=O)O` [bestatin, [(2S,3R)-3-amino-2-hydroxy-4-phenylbutanoyl]-L-leucine], half-maximal inhibition on aminopeptidase B (aminopeptidase B of rat liver) (IC50) required 178 nM. On aminopeptidase B, the “50% inhibition dose (ID50)” value is 0.1 µg and 0.10 µg. In addition, the mode of inhibition result on aminopeptidase B (substrate L-arginine-β-naphthylamide) and at leucine aminopeptidase was “competitive with the substrate” each time. Besides, the “inhibition of aminopeptidase A” value in data set [1] was “did not show any inhibition”; in data set [1] (at 100 μg/ml, aminopeptidase A of human serum) it was 26.4%. For the same compound, the inhibition of trypsin result in the data set with trypsin is on record as “did not show any inhibition”. Moreover, in the data set with chymotrypsin, the inhibition of chymotrypsin result is recorded as “did not show any inhibition”. In addition, in the data set on elastase, the inhibition of elastase result was “did not show any inhibition”. On papain, the inhibition of papain entry is reported as “did not show any inhibition”. Further, in the data set with pepsin, the inhibition of pepsin entry is listed as “did not show any inhibition”. Further, the inhibition of thermolysin result against thermolysin is “did not show any inhibition”. In addition, the antibacterial activity entry was “no antibacterial” in the data set with bacteria (at 100 μg/ml) and “substantially no antibacterial activity” in the data set on bacteria (no concentration given). Also, in the data set with fungi, the antifungal activity entry is given as “no antifungal”. In addition, in data set [2] (intraperitoneal injection of 295 mg/kg, mouse), the toxicity result is “no toxicity”. The death result in [2] (intraperitoneal injection of 300 mg/kg, mice) is listed as “no death”. Moreover, in [3], the “increase of bleomycin activity in inhibiting Yoshida rat sarcoma cells” value is given as 4- 8 times. Besides, the “increase of bleomycin effect on squamous cell carcinoma” value in [4] turned out to be 4 times. Besides, the “stability (activity after treatment)” value in “Stability to pH and heat” is “No decrease of the activity”. In addition, the solubility entry is “practically insoluble; also recorded: hardly soluble” in the data set “Solubility in solvents” (ethyl acetate, butyl acetate, ethyl ether, hexane, petroleum ether, benzene, chloroform); “slightly soluble; also recorded: less soluble” in the data set “Solubility in solvents” (propanol and butanol); “soluble” in “Solubility in solvents” (water, acetic acid, pyridine, dimethylsulfoxide, methanol, ethanol). Moreover, the “inhibition of bleomycin hydrolase” value in the data set with bleomycin hydrolase is listed as “strong inhibition”. The “inhibition of growth of mammalian cells” value in data set [5] is given as “weak inhibition”.

On to `COC(=O)[C@H](CC(C)C)NC(=O)[C@@H](O)[C@H](N)Cc1ccccc1` [methyl ester of bestatin], for which the “50% inhibition dose (ID50)” value at aminopeptidase B turned out to be 8.4 µg.
